Data on twelve molecules can be found in PMC8122972, “Methoxy-Substituted Tyramine Derivatives Synthesis, Computational Studies and Tyrosinase Inhibitory Kinetics” (Molecules, 2021).

The target in data set [1] is T1, mushroom tyrosinase (Agaricus bisporus, UniProt C7FF04).
T1 construct: purchased Sigma Aldrich (St. Louis, MO, USA)
Description: Kinetic analysis of the inhibition of mushroom tyrosinase (Lineweaver-Burk plots). Type of data set: biochemical. As to conditions: for Ki: secondary plot of slope; for Inhibition Type: Lineweaver-Burk plots. The procedure:
Among the synthesized Ph derivatives Ph5, Ph6 and Ph9 were selected to determine their inhibition type and inhibition constants on mushroom tyrosinase activity. The potential of these derivatives to inhibit the free enzyme and enzyme–substrate complex was determined in terms of enzyme inhibitor (EI) and enzyme–substrate-inhibitor (ESI) constants respectively. […] Meanwhile, in the case of compound Ph6, the Lineweaver–Burk plot gave a family of straight lines, all of which intersected at the same point on the x-axis Figure 2A. […] It is worth mentioning here that the enzyme inhibitory kinetics were performed with a more efficient natural substrate L-DOPA (L-3,4-dihydroxyphenylalanine). Ph5 is a 3,5-dihydroxyl-substituted benzoic acid derivative and Ph9 is 2,4-dihydroxyl-substituted cinnamic acid derivative whereas, Ph6 is an unsubstituted cinnamic acid analogue.
A series of experiments were performed to calculate the inhibitory kinetics of compounds Ph5, Ph6 and Ph9 by following the already reported method. […] The concentration of substrate L-DOPA was between 0.125 to 2 mM in all kinetic studies. Pre-incubation time and measurement time were the same as discussed in mushroom tyrosinase inhibition assay protocol. Maximal initial velocity was determined from initial linear portion of absorbance up to five minutes after addition of enzyme at a 30 s interval. The inhibition type on the enzyme was determined by Lineweaver–Burk plots of inverse velocities (1/V) versus the inverse of substrate concentration 1/[S] mM^−1.
Target sequence in this assay (C7FF04 1-392): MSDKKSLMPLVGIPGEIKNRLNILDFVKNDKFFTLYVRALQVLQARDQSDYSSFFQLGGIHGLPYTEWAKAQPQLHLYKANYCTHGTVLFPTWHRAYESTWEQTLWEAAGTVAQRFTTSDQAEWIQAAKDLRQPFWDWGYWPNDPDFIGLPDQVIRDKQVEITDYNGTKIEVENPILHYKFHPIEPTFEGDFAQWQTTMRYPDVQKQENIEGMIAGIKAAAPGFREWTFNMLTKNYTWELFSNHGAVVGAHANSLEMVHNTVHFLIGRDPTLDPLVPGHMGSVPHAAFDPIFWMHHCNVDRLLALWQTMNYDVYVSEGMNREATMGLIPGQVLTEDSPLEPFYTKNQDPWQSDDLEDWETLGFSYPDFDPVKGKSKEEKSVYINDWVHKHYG

Data set [2] has as its target T1, mushroom tyrosinase. Description: In vitro mushroom tyrosinase inhibition assay (L-DOPA, dopachrome at 475 nm). Type of data set: biochemical.
Target sequence in this assay (C7FF04 1-392 limits assumed): as the sequence (C7FF04 1-392) above
Description: In vitro mushroom tyrosinase (Sigma Aldrich, St. Louis, MO, USA) inhibition assay was performed, following our already reported method [52]. In detail, 140 µL of phosphate buffer (20 mM, pH 6.8), 20 µL of mushroom tyrosinase (30 U/mL) and 20 µL of the inhibitor solution were placed in the wells of a 96-well microplate. After pre-incubation for 10 min at room temperature, 20 µL of L-DOPA (3,4-dihydroxyphenylalanine, Sigma Aldrich, St. Louis, MO, USA) (0.85 mM) was added and the assay plate was further incubated at 25 °C for 20 min. Afterward the absorbance of dopachrome was measured at 475 nm using a microplate reader (OPTIMax, Tunable, Sunnyvale, CA, USA). All of the compounds were dissolved in DMSO and blank tests were performed with solvent DMSO. The IC50 values were reported after subtracting the value of DMSO. […] Each concentration was analyzed in three independent experiments. The IC50 values were determined by the data analysis and graphing software Origin 8.6, 64-bit.
The tyrosinase %age inhibition was determined by using the following formula:Inhibition (%) = [(B − S)/B] × 100(1)
Here, the absorbance of the blank and inhibitor are represented by B and S respectively.
Data set [3] deals with T2, human tyrosinase (Homo sapiens, UniProt P14679).
T2 construct: endogenous in cells; host or cells: A375 human melanoma cells (ATCC), induced with L-tyrosine; sonicated pellet, 10,000 x g supernatant
T2 sequence (P14679 19-529): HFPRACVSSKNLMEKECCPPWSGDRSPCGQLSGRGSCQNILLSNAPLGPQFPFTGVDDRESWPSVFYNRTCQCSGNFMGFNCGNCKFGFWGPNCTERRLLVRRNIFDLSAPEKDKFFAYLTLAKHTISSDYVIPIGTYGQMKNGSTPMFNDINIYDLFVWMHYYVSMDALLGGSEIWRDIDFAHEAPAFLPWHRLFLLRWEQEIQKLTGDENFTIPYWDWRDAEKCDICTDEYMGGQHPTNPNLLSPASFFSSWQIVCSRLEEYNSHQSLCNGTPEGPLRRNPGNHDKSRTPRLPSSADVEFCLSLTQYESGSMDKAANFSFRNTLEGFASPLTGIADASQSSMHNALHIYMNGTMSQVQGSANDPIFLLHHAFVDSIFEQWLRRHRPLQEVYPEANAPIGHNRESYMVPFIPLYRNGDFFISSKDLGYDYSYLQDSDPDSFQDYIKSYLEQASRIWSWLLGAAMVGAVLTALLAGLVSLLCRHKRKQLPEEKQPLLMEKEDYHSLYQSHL
As to the kind of experiment: Human tyrosinase inhibition assay (enzyme prepared from A375 human melanoma cells). Type of data set: biochemical. To be noted: L-DOPA, 50 µg/mL (b9).
Description: A375 human melanoma cells were obtained from American Type Culture Collection (ATCC; Rockville, MD, USA). A375 cells were grown in Dulbecco’s modified Eagle’s medium (DMEM; Invitrogen, Burlington, ON, Canada) supplemented with L-glutamine, 10% (v/v) fetal bovine serum (FBS; Invitrogen), 50 µg/mL streptomycin (Sigma Aldrich, St. Louis, MO, USA), 50 units/mL penicillin (Sigma Aldrich) and supplemented with 200 µM of L-tyrosine for tyrosinase induction. Cell cultures were incubated at 37 °C, in a humidified atmosphere of 5% CO2. Cells were scraped out from the tissue culture plate with phosphate-buffer saline (PBS) and were homogenized at 4 °C in PBS. The homogenate was centrifuged at 1000× g for 10 min. The precipitate was sonicated in PBS on ice and the mixture was centrifuged at 10,000× g for 30 min. The supernatant containing tyrosinase was used for the measurement of the inhibitory effects.
The assay reaction mixture (200 µL) contained 3.3 mM L-DOPA in 0.33 M phosphate buffer (pH 7.0) and the enzyme in the presence and absence of inhibitors. Fifteen or twenty units of tyrosinase were used to determine the % inhibition. The reaction mixture was incubated at 37 °C for 10 min and the absorbance was recorded at 475 nm using a microplate reader (OPTI Max, Tunable). One unit of the enzyme was defined as the amount of enzyme which increases the absorbance value by 0.001 at 475 per minute under the same conditions as described above.

The target in data set [4] is tyrosinase. Set-up: method as in PMID 24191339. As to conditions: cited from earlier work.
Setting [5] is: substrate L-DOPA, pH 6.8, 25 °C, read-out: Mushroom Tyrosinase IC50 ± SEM.
The mark [6] stands for this setting: mushroom tyrosinase, L-DOPA, read-out: Ki (enzyme inhibitor constant).

The term melting point denotes the temperature of the solid-liquid transition. For orientation: Ki means the dissociation constant of the complex between target and ligand, obtained from inhibition or displacement. The term IC50 denotes the concentration needed to halve the response being measured. Broadly, the inhibition is the drop in the measured response relative to a control, in per cent. A higher inhibition goes with a strong effect.

Several values for one entry are separate records, joined by “and”; a condition that tells them apart may be missing. Equal values may be shown once. Entries after “also recorded” stand apart in the source; their conditions may differ. Read-outs that look alike come from different tables or passages of the source.

`COc1ccc(CCNC(=O)COC(=O)C=Cc2ccccc2)cc1` [Ph6, 2-((4-methoxyphenethyl)amino)-2-oxoethyl cinnamate] came in with a melting point of 103 to 105 °C. For the same molecule, in data set [1] (Ki (enzyme inhibitor constant), mushroom tyrosinase, L-DOPA), the inhibition constant (Ki) stood at 2.3 nM. Besides, the Vmax in data set [1] (inhibitor dose 0.001 µM) is on record as 7.060 × 10^−6 ∆A/s. In addition, the Vmax in data set [1] (inhibitor dose 0.002 µM) is reported as 6.929 × 10^−6 ∆A/s. The “Inhibition Type” value in data set [1] (mushroom tyrosinase, L-DOPA) was “non-competitive inhibitor; also recorded: non-competitive inhibition”. In addition, it took 2.04 ± 0.087 nM to reach half-maximal inhibition in data set [2] (Mushroom Tyrosinase IC50 ± SEM, substrate L-DOPA, pH 6.8, 25 °C) (IC50). For the same molecule, 2.1 nM corresponded to half-maximal inhibition in data set [2] (Mushroom tyrosinase IC50, as printed in the abstract) (IC50). Besides, in data set [3], the “Human Tyrosinase (% Inhibition)” value is recorded as 92.24 ± 7.985% and testing at 50 µg/mL gave an inhibition of 92.2%.
Take `COc1ccc(CCNC(=O)COC(=O)c2ccc(O)cc2O)cc1` [Ph3, 2-((4-methoxyphenethyl)amino)-2-oxoethyl 2,4-dihydroxybenzoate]: in data set [2] (setting [5]), the concentration for half-maximal inhibition (IC50) amounted to 839 ± 38.1 nM. This molecule displayed an inhibition in data set [3] of 79.7 ± 6.61%.
As for `COc1ccc(CCNC(=O)COC(=O)/C=C/c2ccccc2O)cc1` [Ph7, 2-((4-methoxyphenethyl)amino)-2-oxoethyl (E)-3-(2-hydroxyphenyl)acrylate], the melting point is 111 to 113 °C. Also, the IC50 in data set [2] (setting [5]) was determined as 104 ± 3.8 nM. In addition, the inhibition in data set [3] came to 85.6 ± 6.04%.
`COc1ccc(CCNC(=O)COC(=O)c2ccc(O)c(O)c2)cc1` [Ph4, 2-((4-methoxyphenethyl)amino)-2-oxoethyl 3,4-dihydroxybenzoate]: the concentration for half-maximal inhibition (IC50) in data set [2] (setting [5]) was found to be 329 ± 21 nM. The molecule further had an inhibition in data set [3] of 82.2 ± 7.04%.
The corresponding values for `COc1ccc(CCNC(=O)COC(=O)/C=C/c2ccc(Cl)cc2)cc1` [Ph10, 2-((4-methoxyphenethyl)amino)-2-oxoethyl (E)-3-(4-chlorophenyl)acrylate] are 452 ± 17.1 nM and 79.2 ± 5.95%.
For the molecule `O=c1oc2c(O)c(O)cc3c(=O)oc4c(O)c(O)cc1c4c23` [ellagic acid], in data set [4] (substrate L-DOPA), the “Tyrosinase inhibitory activity IC50” value is on record as 151.1 µg/mL.
With `O=c1c(O)c(-c2ccc(O)c(O)c2)oc2cc(O)c(O)c(O)c12` [quercetagetin], the entries for the “Tyrosinase inhibitory activity IC50” value in data set [4] (substrate L-DOPA) and in data set [4] (substrate L-tyrosine) were 128.41 µg/mL and 89.31 µg/mL, respectively.
Consider `COc1ccc(CCNC(=O)COC(=O)/C=C/c2ccc(O)cc2)cc1` [Ph8, 2-((4-methoxyphenethyl)amino)-2-oxoethyl(E)-3-(4-hydroxyphenyl)acrylate], for which the melting point lay in the range of 119 to 121 °C. Moreover, the IC50 in data set [2] (setting [5]) came out at 923 ± 53 nM. In addition, the inhibition in data set [3] worked out at 86.3 ± 6.54%.
Take `COc1ccc(CCNC(=O)COC(=O)c2ccc(O)cc2)cc1` [Ph2, 2-((4-methoxyphenethyl)amino)-2-oxoethyl 4-hydroxybenzoate]: the IC50 in data set [2] (setting [5]) was 463 ± 17 nM. The molecule also came in with an inhibition in data set [3] of 73 ± 5.35%.
Take `COc1ccc(CCNC(=O)COC(=O)c2cccc(O)c2)cc1` [Ph1, 2-((4-methoxyphenethyl)amino)-2-oxoethyl 3-hydroxybenzoate]: in data set [2] (setting [5]), the 50% inhibitory concentration (IC50) is 4070 ± 154 nM. Also, the inhibition in data set [3] stood at 75.6 ± 5.65%.
For `COc1ccc(CCNC(=O)COC(=O)c2cc(O)cc(O)c2)cc1` [Ph5, 2-((4-methoxyphenethyl)amino)-2-oxoethyl 3,5-dihydroxybenzoate], the Vmax is listed as 8.266 × 10^−6 ∆A/s in data set [1] (inhibitor dose 0.2 µM) and 5.242 × 10^−6 ∆A/s in data set [1] (inhibitor dose 0.4 µM). Also, the “Inhibition Type” value in data set [1] (mushroom tyrosinase, L-DOPA) is on record as “mixed-type inhibition”. Further, the “Ki′ (enzyme substrate inhibitor constant)” value in data set [1] (mushroom tyrosinase, L-DOPA, secondary plot of intercept) was determined as 475 nM. In addition, the inhibition constant Ki in data set [1] (setting [6]) was determined as 219 nM. The concentration for half-maximal inhibition (IC50) in data set [2] (setting [5]) was 231 ± 7.8 nM. The inhibition in data set [3] is 64.8 ± 3.84%.
For `COc1ccc(CCNC(=O)COC(=O)/C=C/c2ccc(O)cc2O)cc1` [Ph9, 2-((4-methoxyphenethyl)amino)-2-oxoethyl(E)-3-(2,4-dihydroxyphenyl)acrylate], the Vmax in data set [1] (inhibitor dose 0.00003 µM) was 4.666 × 10^−6 ∆A/s; in data set [1] (inhibitor dose 0.00012 µM), 2.666 × 10^−6 ∆A/s; in data set [1] (inhibitor dose 0.00015 µM), 4.285 × 10^−6 ∆A/s. Moreover, in data set [1] (mushroom tyrosinase, L-DOPA), the “Inhibition Type” value is reported as “mixed-type inhibition”. Further, the inhibitory constant (Ki) in data set [1] (setting [6]) is 0.09 nM and 0.093 nM. Further, the 50% inhibitory concentration (IC50) is 0.059 nM in data set [2] (read-out: Mushroom tyrosinase IC50); 0.06 nM and 0.059 nM and 0.0595 nM in data set [2] (setting [5]). Also, in data set [3], the “Human Tyrosinase (% Inhibition)” value is 94.59 ± 8.071%. 50 µg/mL produced 94.6% inhibition in data set [3].
